Entries after “also recorded” stand apart in the source; their conditions may differ. Where two headings read alike, the source gives them in different places.
How the values were obtained:
MDA-MB231 [1] = experiment: Cell proliferation, MTT assay; format: cell-based; settings: Homo sapiens, read-out: Anti-proliferative activity EC50
BT549 = experiment: Cell proliferation, MTT assay; format: cell-based; settings: Homo sapiens, read-out: Anti-proliferative activity EC50
MCF-7 = experiment: Cell proliferation, MTT assay; format: cell-based; settings: Homo sapiens, read-out: Anti-proliferative activity EC50
MDA-MB157 = experiment: Cell proliferation, MTT assay; format: cell-based; settings: Homo sapiens, read-out: Anti-proliferative activity EC50
HCC70 = experiment: Cell proliferation, MTT assay; format: cell-based; settings: Homo sapiens, read-out: Anti-proliferative activity EC50
A549 = experiment: Cell proliferation, MTT assay; format: cell-based, Human; settings: for EC50: Homo sapiens, read-out: Anti-proliferative activity EC50
NB4 = experiment: Cell proliferation, MTT assay; format: cell-based; settings: Homo sapiens, read-out: Anti-proliferative activity EC50
[2] = tested on: five breast cancer cell lines, lung cancer A549 and non-MLL leukemia NB4 cells; experiment: Cell proliferation, MTT assay, whole panel; format: cell-based; settings: Homo sapiens, 72 h; 3-day treatment, all seven cell lines; read-out: EC50 against all of these cells
[3] = tested on: MDA-MB231, BT549 and MCF-7 breast cancer cells; experiment: Cell proliferation, MTT assay, DOT1L+ breast cancer cells; format: cell-based, Human; settings: Homo sapiens, 360 h
H3K79 methylation [4] = experiment: Western blot of histone methylation in MDA-MB231; format: cell-based, Human
Description: (§1) Human cell lines BT549, MDA-MB231, MCF-7, MDA-MB157, HCC70, A549 and NB4 were obtained from the American Type Culture Collection (ATCC) and cultured using ATCC recommended conditions. Primary antibodies against H3K79me2, H3K27me3, H3K4me3, H3K36me2, H4K20me3, H3K9me-pan were purchased from Cell Signaling (Danvers, MA). siRNA experiments were performed by transfecting MDA-MB-231 cells with X-tremeGENE Transfection Reagent (Roche) and 10 nM siRNA (Invitrogen), according to the manufacturer's protocol.
(§2) 10^6 cells/well were incubated with increasing concentrations of a compound for 5 days and histones extracted with the EpiQuik™ Total Histone Extraction Kit (Epigentek) according to the manufacturer's protocol. Equal amounts of histones (2μg) were separated on SDS-PAGE and transferred to PVDF membranes. The blots were probed with primary antibodies, followed by anti-rabbit IgG (Thermo Scientific) secondary antibodies. For western blot analysis of MDA-MB231 xenograft tumors, tumors were harvested and frozen in liquid nitrogen. Histones were extracted and analyzed by immunoblotting as described above.

H3K79 methylation [5] = experiment: Western blot of histone methylation in MCF-7; format: cell-based, Human; settings: MCF-7, Western blot, in words
Description: as §1, §2

MDA-MB231 cells [6] = experiment: CD44/CD24 flow cytometry; format: cell-based, Human; settings: MDA-MB231, FACS, in words
Description: (§3) 5 × 10^4 cells/well were incubated with compounds for 14 days. The ALDH activity of cells was determined by using the ALDEFLUOR assay kit (StemCell Technologies) according to the manufacturer's instructions. Combinations of fluorochrome-conjugated monoclonal antibodies against human CD44-FITC and CD24-PE were obtained from BD Biosciences. Primary antibodies or the respective isotype controls (BD Biosciences) were added to the cell suspension, according to the manufacturer's recommendation, and incubated at 4°C for 20 min. Dead cells were eliminated using propidium iodide (Sigma). The labelled cells were analyzed on a FACS Calibur (BD Biosciences/Applied Biosystems).

MDA-MB231 cells [7] = experiment: ALDEFLUOR assay; format: cell-based, Human; settings: in words
Description: as §3

MDA-MB231 [8] = experiment: Transwell cell migration assay; format: cell-based, Human
Description: (§4) 5 × 10^4 cells/well were incubated with compounds for 14 days. For transwell migration assays, 5× 10^4 cells were plated in the top chamber with the non-coated membrane (24-well insert; pore size, […]; BD Biosciences). For invasion assays, 5× 10^4 cells were plated in the top chamber with Matrigel-coated membrane. The cells on the apical side of each insert were then scraped off after 22 h for both assays. The wells were washed with PBS, fixed with 100% methanol and stained with DAPI. Cells that had migrated to the basal side of the membrane were visualized and counted with a Nikon Eclipse TE2000-U microscope at 10×. Pictures of three random fields were obtained and the number of cells that had migrated quantified using ImageJ analysis software.

MDA-MB231 [9] = experiment: Matrigel invasion assay; format: cell-based, Human
Description: as §4

MDA-MB231 cells [10] = experiment: Microarray gene set enrichment analysis; format: cell-based, Human; settings: 1 at 5 μM, 2 at 10 μM, in words
Description: 10^5 cells/well were incubated with compounds for 14 days. Cells were lysed immediately in TRIzol® Reagent, frozen in liquid nitrogen, and shipped to Asuragen, Inc. (Austin, TX) for microarray experiments. RNA was isolated, amplified, and hybridized to Illumina Human HT-12 v4 arrays according to the manufacturer's protocol. Microarray data were log2 transformed and then normalized to have the same median for all the arrays. Moderate t-statistics were used to test if genes were differentially expressed between the groups of interest. Benjamini and Hochberg method was used to correct for multiple comparisons. R and Bioconductor packages were used for all the statistical analyses (http://cran.us.r-project.org/, http://www.bioconductor.org/). Gene set enrichment analysis was performed using GSEA software from Broad Institute (Boston, MA).

[11] = tested on: MDA-MB157 and HCC70 as well as A549 and NB4; settings: in words
[12] = in words; cited from earlier work

EC50 (MDA-MB231 [1]; MDA-MB-231, 72 h, MDA-MB231, 3-day treatment): 45 µM | EC50 (MDA-MB231 [1]; MDA-MB-231, 360 h, MDA-MB231, 15-day treatment): 0.19 µM | EC50 (BT549; BT-549, 72 h, BT549, 3-day treatment): 29 µM | EC50 (BT549; BT-549, 360 h, BT549, 15-day treatment): 0.71 µM | EC50 (MCF-7; MCF7, 72 h, MCF-7, 3-day treatment): 15 µM | EC50 (MCF-7; MCF7, 360 h, MCF-7, 15-day treatment): 0.95 µM | EC50 (MDA-MB157; MDA-MB-157, 72 h, MDA-MB157, 3-day treatment): > 50 µM | EC50 (MDA-MB157; MDA-MB-157, 360 h, MDA-MB157, 15-day treatment): 27 µM | EC50 (A549; 72 h, A549, 3-day treatment): 19 µM | EC50 (A549; 360 h, A549, 15-day treatment): 20 µM | EC50 [2]: ≥ 15 µM | EC50 ([3]; 15-day treatment, MDA-MB231, BT549, MCF-7, read-out: EC50 against proliferation): 0.19 to 1.4 µM | EC50 ([3]; DOT1L+ breast cancer cells, 15-day, read-out: anti-proliferation EC50): ≥ 0.19 µM | IC50 (H3K79 methylation [4]; Homo sapiens, MDA-MB-231, read-out: IC50 of H3K79 methylation inhibition): ~0.05 µM
Structure (SMILES): CC(C)N(CCCNC(=O)Nc1ccc(C(C)(C)C)cc1)C[C@H]1O[C@@H](n2ccc3c(N)ncnc32)[C@H](O)[C@@H]1O [Compound 1, EPZ004777]
EC50 (HCC70; 72 h, HCC70, 3-day treatment): 20 µM | EC50 (HCC70; 360 h, HCC70, 15-day treatment): 12 µM | activity against A549 cells (A549; in words): negligible activity | EC50 (NB4; NB-4, 72 h, NB4, 3-day treatment): 21 µM | EC50 (NB4; NB-4, 360 h, NB4, 15-day treatment): 22 µM | effect on H3K79 methylation (H3K79 methylation [4]; in words): only inhibited H3K79 methylation | effect on H3K79 methylation (H3K79 methylation [5]): significantly reduced H3K79 methylation; also recorded: considerably reduced H3K79 methylation | CD44+/CD24− cell population (MDA-MB231 cells [6]): significantly decreased | cell population expressing high levels of CD24 (MDA-MB231 cells [6]): considerably more cells expressed higher levels of CD24; also recorded: increased cell population | ALDH+ cell population (MDA-MB231 cells [7]): considerably reduced | inhibition of cell migration (MDA-MB231 [8]; MDA-MB231, Transwell): ~ 50% | cell migration and invasion (MDA-MB231 [8]; MDA-MB231, Transwell with and without Matrigel, in words): reduced abilities of cell migration and invasion | inhibition of Matrigel invasion (MDA-MB231 [9]): ~25% | genes whose expression is low in breast CSCs (GSEA) (MDA-MB231 cells [10]): upregulation | pro-proliferation genes in the PAM50 gene set (GSEA) (MDA-MB231 cells [10]): downregulation | activity against DOT1L−/low breast or non-breast cancer cells [11]: inactive | pharmacokinetics [12]: poor pharmacokinetics with short plasma half-lives
